Assays:
[1] = tested on: transcription factor Nrf2; test: Assay to evaluate Nrf2 activity: mRNA of Nrf2 gene expression targets by RT-PCR (HPRT internal control); format: cell-based, mouse; conditions: for ΔmRNA/HPRT level for the NQO1 gene / ΔmRNA/HPRT level for the Gclc gene / ΔmRNA/HPRT level for the Gclm gene / ΔmRNA/HPRT level for the Gsta2 gene / ΔmRNA/HPRT level for the HMOX gene / ΔmRNA/HPRT level for the SRXN1 gene / ΔmRNA/HPRT level for the TXNRD1 gene: 24 hours, C2C12
From the text: The transcription factor Nrf2 and its repressor Keap1 regulate a large network of antioxidant genes. The mitochondrial inner membrane is particularly susceptible to damage by reactive oxygen species. Antioxidants can play a large role in preserving the mitochondrial inner membrane and maintaining the integrity of the respiratory chain. Holmstrom et al. (BIOLOGY OPEN (2013) 2, p. 761-770) have also shown that the Nrf2 pathway can potentially control the NADH substrates that are needed for mitochondrial respiration. Activation of the Nrf2 pathway is a way of improving the mitochondrial bioenergetics. The compounds of the invention were evaluated in an assay that was designed to assess the various antioxidant genes that could be regulated by the transcription factor Nrf2.
(§1) Briefly, mouse C2C12 cells were treated with the test compounds when about 70% of the myotubes were differentiated (Day 13). For the assay, cells were treated with the test compounds for 24 hours in low glucose, 0.5% FBS DMEM and 0.1% BSA final concentration. The total RNA was harvested and the relative mRNA expression levels were assessed via RT-PCR with Hypoxanthine phosphoribosyltransferase (“HPRT”) as the internal control. Data were represented as the mean ΔmRNA/HPRT, error bars represent the standard error of the mean (SEM). Significance was determined by student's t-test in comparison to control. The Nrf2 gene expression targets include:
Gclc—Glutamate-cysteine ligase catalytic subunit; Gclm—Glutamate-cysteine ligase modifier subunit;
Gsta2—Glutathione S-transferase A2;
HMOX1—Heme oxygenase 1; NQO1—NAD(P)H dehydrogenase (quinone) 1;
TXNRD1—Thioredoxin reductase 1.
Compound I-1 was evaluated in this assay for any upregulation in the seven Nrf2 gene expression targets listed above.

mouse C2C12 cells = test: Signs of toxicity seen in the Nrf2 activity assay; format: cell-based
Method: as §1
The ΔmRNA/HPRT level for NQO1 was selected for this experiment. […] With this covalent conjugate, the two key bioactive components were the N-acetylcysteine amide (NACA) and the omega-3 fatty acid. […] However, the effect was modest and a high concentration of NACA was needed. […] In order to obtain the same level of activity as 12 μM of the fatty acid cysteine conjugate I-1, a much higher concentration of 2,500 μM of NACA was needed. In this assay, the omega-3 fatty acid DHA began to show signs of toxicity at concentration of >25 μM. […] In terms of combination of the individual components, the combination of A (consisting of 312.5 μM of NACA and 3.12 μM of DHA) and the combination of B (consisting of 625 μM of NACA and 6.25 μM of DHA) were used.

C2C12 cells = test: Metabolic flux analysis: oxygen consumption rate (OCR) in Sea Horse XF96 under H2O2 stress; format: cell-based, mouse; conditions: for OCR over time, bioenergetics: treated 4 hours prior to 1 mM H2O2 stress; for OCR corrected for antimycin A, mitochondrial bioenergetics / OCR upon the addition of FCCP: 1 mM H2O2 stress
Method: C2C12 cells were cultured in Sea Horse XF96 plates according to the manufacturer's instructions and established protocols (see www.seahorsebio.com/products/instruments/selection.php; Yao et al., PROC. NATL. ACAD. SCI. USA (2009) 106, p. 14670-14675).
On the day of the assay, cells were incubated with the compounds of the invention for either 4 hours or 24 hours. The short 4 hour incubation with the test compounds allowed one to evaluate for improvement of mitochondrial bioenergetics under the “scavengers” conditions (i.e. conditions in which the test compounds could effectively scavenge the various reactive oxygen species). The longer 24 hour incubation with the test compounds allowed one to evaluate for improvement of mitochondrial bioenergetics under the Nrf2 conditions (i.e. conditions in which the test compounds could effectively activate the Nrf2 antioxidant pathway in order to cope with the various reactive oxygen species). For these assays, H2O2 was used as the source of reactive oxygen species. Under the general stress test, cells were then exposed to either 500 μM of H2O2 or 1 mM of H2O2 for 4 hours before the evaluation in the Sea Horse system. Baseline measurements of the oxygen consumption rate (OCR) were taken before sequential injections of the various mitochondrial inhibitors. Readings were taken after addition of the mitochondrial inhibitor before injection of the subsequent inhibitors. The mitochondrial inhibitors that were used included oligomycin (1 μM), FCCP (1 μM) and Antimycin A (1 μM). Oligomycin is a known inhibitor ATP synthase; addition of this reagent essentially stopped the synthesis of ATP. Antimycin A inhibits the electron transport chain in the mitochondria. FCCP essentially uncouples the mitochondria and allows one to measure the maximum respiration. Measurements of the OCR following the addition of FCCP allows one to assess the mitochondrial content. An improvement in the OCR following the addition of FCCP is a reflection of the improvement in bioenergetics, when the proper control groups were put in place. The OCR were automatically calculated and recorded by the Sea Horse XF96 software. Ten measurements were taken at each of the indicated time points. Statistical significance in different treatment groups were determined by an ANOVA, followed by a Newman-Keuls post hoc analysis. Compounds I-1, I-3 and 1-5 were evaluated for mitochondrial bioenergetics under various conditions.

[2] = tested on: transcription factor Nrf2; test: Assay to evaluate Nrf2 activity: mRNA of Nrf2 gene expression targets by RT-PCR (HPRT internal control); format: cell-based, mouse; conditions: synergy experiment
[3] = tested on: human epithelial cells from CF patients with homozygous ΔF508 mutation; conditions: 250 μM; cited from earlier work

CC/C=C\C/C=C\C/C=C\C/C=C\C/C=C\C/C=C\CCC(=O)O [DHA, all-cis-4,7,10,13,16,19-docosahexaenoic acid, reference compound]
mRNA level of the NQO1 gene ([1]; tested at up to 12 μM, FIG. 6): did not observe any upregulation | concentration at which signs of toxicity began to show (mouse C2C12 cells): > 25 µM

CC/C=C\C/C=C\C/C=C\C/C=C\C/C=C\C/C=C\CCC(=O)N[C@@H](CSSC(C)(C)CNC(=O)c1cccnc1)C(N)=O [I-1, N-(2-(((R)-3-amino-2-((4Z,7Z,10Z,13Z,16Z,19Z)-docosa-4,7,10,13,16,19-hexaenamido)-3-oxopropyl)disulfanyl)-2-methylpropyl)nicotinamide]
OCR over time, bioenergetics (FIG. 2A) (C2C12 cells; 1 μM and 10 μM, treated 24 hours prior to 500 μM H2O2 stress): significant improvement in bioenergetics, and the effect was dose-dependent | OCR upon the addition of FCCP (FIG. 1A) (C2C12 cells; 1 μM compound, treated 4 hours, then 500 μM H2O2 stress): significant restoration of the OCR upon the addition of FCCP, essentially to the same level observed with the normal control group and the positive control groups | OCR corrected for antimycin A, mitochondrial bioenergetics (FIG. 1B) (C2C12 cells; 1 μM or 10 μM, 4 hours, 500 μM H2O2 stress): restored mitochondrial bioenergetics to about the same level observed with normal cells | OCR corrected for antimycin A, bioenergetics (FIG. 2B) (C2C12 cells; 1 μM, 24 hours, 500 μM H2O2 stress): restored the bioenergetics to the same level observed with the normal control group | OCR upon the addition of FCCP (FIG. 1A) (C2C12 cells; 10 μM compound, treated 4 hours, then 500 μM H2O2 stress): significant restoration of the OCR upon the addition of FCCP, essentially to the same level observed with the normal control group and the positive control groups | OCR over time compared with control group and the two positive control groups (FIG. 2A) (C2C12 cells; 10 μM, 24 hours, 500 μM H2O2 stress): considerably higher | increase in the OCR compared with the two positive control groups (catalase or NAC) (FIG. 2B) (C2C12 cells; 10 μM, 24 hours, 500 μM H2O2 stress, corrected for antimycin A): ~4 fold | ΔmRNA/HPRT level for the NQO1 gene ([1]; 6.25 μM): an increase in the expression of mRNA | ΔmRNA/HPRT level for the Gclc gene ([1]; 12.5 μM): significant increase in the expression of mRNA | ΔmRNA/HPRT level for the Gclm gene ([1]; 12.5 μM): significant increase in the expression of mRNA | ΔmRNA/HPRT level for the Gsta2 gene ([1]; 12.5 μM): significant increase in the expression of mRNA | ΔmRNA/HPRT level for the HMOX gene ([1]; 12.5 μM): significant increase in the expression of mRNA | ΔmRNA/HPRT level for the NQO1 gene ([1]; 12.5 μM): two-fold increase | ΔmRNA/HPRT level for the SRXN1 gene ([1]; 12.5 μM): significant increase in the expression of mRNA | ΔmRNA/HPRT level for the TXNRD1 gene ([1]; 12.5 μM): significant increase in the expression of mRNA | ΔmRNA/HPRT level for the NQO1 gene ([1]; 1.56 to 3.12 μM): No significant increase | ΔmRNA/HPRT level for the Gclc gene ([1]; 1.56 to 6.25 μM): No significant increase | ΔmRNA/HPRT level for the Gclm gene ([1]; 1.56 to 6.25 μM): No significant increase | ΔmRNA/HPRT level for the Gsta2 gene ([1]; 1.56 to 6.25 μM): No significant increase | ΔmRNA/HPRT level for the HMOX gene ([1]; 1.56 to 6.25 μM): No significant increase | ΔmRNA/HPRT level for the SRXN1 gene ([1]; 1.56 to 6.25 μM): No significant increase | ΔmRNA/HPRT level for the TXNRD1 gene ([1]; 1.56 to 6.25 μM): No significant increase | Nrf2 pathway activation compared with individual components or their combination ([1]; NQO1 mRNA, FIG. 6): able to increase the Nrf2 pathway synergistically | concentration at which maximal response of NQO1 mRNA was observed ([1]; synergy experiment, FIG. 6): 12 µM | expression of mRNA of NQO1, dose response (FIG. 6) [2]: dose-dependent increase in the expression of mRNA of NQO1

CC/C=C\C/C=C\C/C=C\C/C=C\C/C=C\C/C=C\CCC(=O)N[C@@H](CSSC(C)(C)CNC(=O)c1cccnc1)C(=O)O [I-3, N-((4Z,7Z,10Z,13Z,16Z,19Z)-docosa-4,7,10,13,16,19-hexaenoyl)-S-((2-methyl-1-(nicotinamido)propan-2-yl)thio)-L-cysteine]
OCR over time, bioenergetics (C2C12 cells; 1 μM and 10 μM): dose-dependent increase in bioenergetics | OCR corrected for antimycin A, mitochondrial bioenergetics (C2C12 cells; 10 μM, 4 hours): significant improvement in mitochondrial bioenergetics, essentially comparable to the positive control NAC

CC/C=C\C/C=C\C/C=C\C/C=C\C/C=C\C/C=C\CCC(=O)N[C@@H](CSSC(C)(C)CNC(=O)CC(O)C[N+](C)(C)C)C(N)=O (stereo partly drawn) [I-5, 4-((2-(((R)-3-amino-2-((4Z,7Z,10Z,13Z,16Z,19Z)-docosa-4,7,10,13,16,19-hexaenamido)-3-oxopropyl)disulfanyl)-2-methylpropyl)amino)-2-hydroxy-N,N,N-trimethyl-4-oxobutan-1-aminium]
OCR over time, bioenergetics (C2C12 cells; 1 μM and 10 μM): dose-dependent increase in bioenergetics | OCR corrected for antimycin A, mitochondrial bioenergetics (C2C12 cells; 10 μM, 4 hours): significant improvement in mitochondrial bioenergetics, essentially comparable to the two positive control arms, catalase or NAC

CC(=O)N[C@@H](CS)C(=O)O [NAC, N-acetyl cysteine, reference compound]
OCR upon the addition of FCCP (FIG. 1A) (C2C12 cells; 5 mM NAC positive control, 4 hours, 500 μM H2O2 stress): significant restoration of the OCR upon the addition of FCCP | OCR upon the addition of FCCP (C2C12 cells; 5 mM NAC positive control, 4 hours): increase in the OCR upon the addition of FCCP; almost to the same level observed with the normal control groups

NCCSSCCN [cystamine]
CFTR at the plasma membrane [3]: restoration of the CFTR to the plasma membrane | autophagy [3]: up-regulation of autophagy

catalase [reference compound]
OCR upon the addition of FCCP (FIG. 1A) (C2C12 cells; 5K U/mL catalase positive control, 4 hours, 500 μM H2O2 stress): significant restoration of the OCR upon the addition of FCCP | OCR upon the addition of FCCP (C2C12 cells; 5K U/mL catalase positive control, 4 hours): increase in the OCR upon the addition of FCCP; almost to the same level observed with the normal control groups
